Reference: patent US6878698B2, “Anti-inflammatory androstane derivatives” (Glaxo Group Limited, priority 2001, dated 2005)
“Also recorded” adds a separate entry of the source.

Legend:
glucocorticoid receptor = target: T1, glucocorticoid receptor (Homo sapiens, UniProt P04150); assay: Functional in vitro assay of glucocorticoid agonist activity (A549 cells, NF-κB/ELAM promoter sPAP reporter, TNF stimulated); type: cell-based; settings: A549 cells, NF-κB responsive sPAP reporter; compound 1 hour at 37° C., then TNF 10 ng/ml for 16 hours
T1 construct: A549 cells stably transfected with a reporter gene containing the NF-κB responsive elements from the ELAM gene promoter; endogenous in cells; host or cells: A549 cells stably transfected with the reporter gene only
T1 sequence (P04150 1-777): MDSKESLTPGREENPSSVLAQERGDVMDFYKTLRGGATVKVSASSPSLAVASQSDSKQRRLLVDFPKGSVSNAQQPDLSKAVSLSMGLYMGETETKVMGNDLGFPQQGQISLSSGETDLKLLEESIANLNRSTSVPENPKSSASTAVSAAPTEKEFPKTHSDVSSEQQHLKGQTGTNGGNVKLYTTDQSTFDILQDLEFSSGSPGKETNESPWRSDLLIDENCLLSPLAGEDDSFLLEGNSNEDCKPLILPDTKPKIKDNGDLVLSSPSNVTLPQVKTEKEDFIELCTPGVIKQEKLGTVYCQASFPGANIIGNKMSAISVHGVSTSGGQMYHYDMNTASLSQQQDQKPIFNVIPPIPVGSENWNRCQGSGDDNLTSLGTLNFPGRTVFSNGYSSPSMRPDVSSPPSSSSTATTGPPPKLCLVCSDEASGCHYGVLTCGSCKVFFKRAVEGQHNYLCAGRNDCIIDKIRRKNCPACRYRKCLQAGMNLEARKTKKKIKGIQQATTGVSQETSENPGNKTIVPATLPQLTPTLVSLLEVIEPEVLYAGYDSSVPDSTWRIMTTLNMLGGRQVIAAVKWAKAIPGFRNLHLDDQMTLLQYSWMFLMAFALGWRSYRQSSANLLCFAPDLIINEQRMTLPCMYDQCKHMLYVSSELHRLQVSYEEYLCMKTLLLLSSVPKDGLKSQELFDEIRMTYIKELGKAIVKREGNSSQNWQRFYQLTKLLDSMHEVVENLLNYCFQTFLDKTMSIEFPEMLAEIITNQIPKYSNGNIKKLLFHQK
Description: Pharmacological activity was assessed in a functional in vitro assay of glucocorticoid agonist activity which is generally predictive of anti-inflammatory or anti-allergic activity in vivo.
A549 cells stably transfected with a reporter gene containing the NF-κB responsive elements from the ELAM gene promoter coupled to sPAP (secreted alkaline phosphatase) were treated with test compounds at appropriate doses for 1 hour at 37° C. […] Dose response curves were constructed from which EC50 values were estimated.

in vivo = settings: male, Wistar Han, rat, plasma, iv, 0.1 mg/kg
[1] = Pharmacokinetics after intravenous (IV) and oral dosing in rats; settings: for plasma clearance (in words): in vivo in the rat
lung eosinophilia = assay: Ovalbumin sensitised Brown Norway rat eosinophilia model; type: in vivo; settings: for inhibition of lung eosinophilia: single intra-tracheal dose of 30 μg, suspension in saline, 30 min prior to ovalbumin challenge
Description: Pharmacological activity in vivo was assessed in an ovalbumin sensitised Brown Norway rat eosinophilia model. This model is designed to mimic allergen induced lung eosinophilia, a major component of lung inflammation in asthma.

thymus weight = assay: Rat model of thymus involution; type: in vivo; settings: 3 daily IT doses of 100 μg
[2] = Pharmacokinetics after intra-tracheal dry powder dosing in the pig; type: in vivo; settings: for time after dosing up to which quantifiable in plasma / AUC (0-inf): 1 mg intra-tracheal dry powder; for time after dosing up to which quantifiable in plasma: LC-MS/MS, lower limits of quantitation 10 and 20 pg/mL; for Cmax: 1 mg intra-tracheal dry powder blend in lactose, anaesthetised; for AUC (0-inf): Example 1 value calculated with plasma half-life from IV dosing
Description: Serial blood samples were taken for up to 8 h following dosing.

[3] = Pharmacokinetics after intravenous administration in the anaesthetised pig; type: in vivo; settings: mixture of the two compounds IV at 0.1 mg/kg
Excerpt: The clearance of these two glucocortocoids is similar is this experimental pig model.

human hepatocytes = assay: In vitro metabolism in human hepatocytes; type: in vitro ADME; settings: 17-β carboxylic acid (X) the only significant metabolite
rat hepatocytes = assay: In vitro metabolism in rat hepatocytes; type: in vitro ADME; settings: 17-β carboxylic acid (X) the only significant metabolite

C[C@@H]1C[C@H]2[C@@H]3C[C@H](F)C4=CC(=O)C=C[C@]4(C)[C@@]3(F)[C@@H](O)C[C@]2(C)[C@@]1(OC(=O)c1cc(Cl)sc1Cl)C(=O)SCF [Example 14, 17α-[(2,5-Dichlorothiophene-3-carbonyl)oxy]-6α,9α-difluoro-11β-hydroxy-16α-methyl-3-oxo-androsta-1,4-diene-17β-carbothioic acid S-fluoromethyl ester]
EC50 (glucocorticoid receptor): 2 nM

Cc1ncsc1C(=O)OC1(C(=O)SCF)C(C)CC2C3CC(F)C4=CC(=O)C=CC4(C)C3(F)C(O)CC21C (stereo not drawn) [Example 41, 6α,9α-Difluoro-11β-hydroxy-16α-methyl-17α-[(4-methyl-1,3-thiazole-5-carbonyl)oxy]-3-oxo-androsta-1,4-diene-17β-carbothioic acid S-fluoromethyl ester]
clearance (in vivo): 42 mL/min/kg

Cc1cc(C(=O)OC2(C(=O)SCF)C(C)CC3C4CC(F)C5=CC(=O)C=CC5(C)C4(F)C(O)CC32C)on1 (stereo not drawn) [Example 25, 6α,9α-Difluoro-11β-hydroxy-16α-methyl-17α-[(3-methylisoxazole-5-carbonyl)oxy]-3-oxo-androsta-1,4-diene-17β-carbothioic acid S-fluoromethyl ester]
plasma clearance (in words) [1]: approaching hepatic blood flow
clearance (in vivo): 46 mL/min/kg

Cc1cc(C(=O)OC2(C(=O)SCF)C(C)CC3C4CC(F)C5=CC(=O)C=CC5(C)C4(F)C(O)CC32C)no1 (stereo not drawn) [Example 24, 6α,9α-Difluoro-11β-hydroxy-16α-methyl-17α-[(5-methylisoxazole-3-carbonyl)oxy]-3-oxo-androsta-1,4-diene-17β-carbothioic acid S-fluoromethyl ester]
plasma clearance (in words) [1]: approaching hepatic blood flow
clearance (in vivo): 47 mL/min/kg

Cc1nc(C)c(C(=O)O[C@]2(C(=O)SCF)[C@H](C)C[C@H]3[C@@H]4C[C@H](F)C5=CC(=O)C=C[C@]5(C)[C@@]4(F)[C@@H](O)C[C@@]32C)s1 [Example 23, 6α,9α-Difluoro-17α-[(2,4-dimethyl-1,3-thiazole-5-carbonyl)oxy]-11β-hydroxy-16α-methyl-3-oxo-androsta-1,4-diene-17 β-carbothioic acid S-fluoromethyl ester]
EC50 (glucocorticoid receptor): 17 nM

CC1CC2C3CC(F)C4=CC(=O)C=CC4(C)C3(F)C(O)CC2(C)C1(OC(=O)c1ccon1)C(=O)SCF (stereo not drawn) [Example 28, 6α,9α-Difluoro-11β-hydroxy-17α-[(isoxazole-3-carbonyl)oxy]-16α-methyl-3-oxo-androsta-1,4-diene-17β-carbothioic acid S-fluoromethyl ester]
plasma clearance (in words) [1]: approaching hepatic blood flow
clearance (in vivo): 51 mL/min/kg

CCC(=O)O[C@]1(C(=O)SCF)[C@H](C)C[C@H]2[C@@H]3C[C@H](F)C4=CC(=O)C=C[C@]4(C)[C@@]3(F)[C@@H](O)C[C@@]21C [Fluticasone propionate, 6α, 9α-Difluoro-17α-(1-oxopropoxy)-11β-hydroxy-16α-methyl-3-oxo-androsta-1,4-diene-17β-carbothioic acid S-fluoromethyl ester, reference compound]
inhibition of lung eosinophilia (lung eosinophilia): 41%
reduction of thymus weight (thymus weight): 78%
time after dosing up to which quantifiable in plasma [2]: up to 8 hours
clearance (in words) [3]: similar
pharmacokinetic parameters following intravenous administration (in words) [3]: the same

CC1CC2C3CC(F)C4=CC(=O)C=CC4(C)C3(F)C(O)CC2(C)C1(OC(=O)c1ccsc1)C(=O)SCF (stereo not drawn) [Example 4, 6α,9α-Difluoro-11β-hydroxy-16α-methyl-3-oxo-17α-[(3-thienylcarbonyl)oxy]-androsta-1,4-diene-17β-carbothioic acid S-fluoromethyl ester]
plasma clearance (in words) [1]: approaching hepatic blood flow
clearance (in vivo): 49 mL/min/kg

C[C@@H]1CC2C3C[C@H](F)C4=CC(=O)C=C[C@]4(C)[C@@]3(F)[C@@H](O)C[C@]2(C)[C@@]1(OC(=O)c1ccco1)C(=O)SCF (stereo partly drawn) [Example 1, 6α,9α-Difluoro-17α-[(2-furanylcarbonyl)oxy]-11β-hydroxy-16α-methyl-3-oxo-androsta-1,4-diene-17β-carbothioic acid S-fluoromethyl ester]
inhibition of lung eosinophilia (in words) (lung eosinophilia; intra-tracheal suspension in saline 30 min prior to ovalbumin challenge): dose dependant inhibition
inhibition of lung eosinophilia (lung eosinophilia): 69%
reduction of thymus weight (thymus weight): 67%
time after dosing up to which quantifiable in plasma [2]: up to 2 hours
Cmax ([2]; Pig 1): 0.117 ng/mL
AUC (0-inf) ([2]; Pig 1): 0.254 ng·h/mL
Cmax ([2]; Pig 2): 0.081 ng/mL
AUC (0-inf) ([2]; Pig 2): 0.221 ng·h/mL
systemic exposure compared to fluticasone propionate (in words) ([2]; dry powder delivery to the lungs of anaesthetised pigs): markedly reduced systemic exposure; also recorded: significantly lower exposure
manner of metabolism (in words) (human hepatocytes): metabolised in an identical manner to fluticasone propionate
manner of metabolism (in words) (rat hepatocytes): metabolised in an identical manner to fluticasone propionate
plasma clearance ([1]; IV 0.1 mg/kg, male Wistar Han rats): 47.3 mL/min/kg
plasma clearance (in words) [1]: approaching hepatic blood flow
clearance (in words) [3]: similar
pharmacokinetic parameters following intravenous administration (in words) [3]: the same

Cc1noc(C)c1C(=O)O[C@]1(C(=O)SCF)[C@H](C)C[C@H]2[C@@H]3C[C@H](F)C4=CC(=O)C=C[C@]4(C)[C@@]3(F)[C@@H](O)C[C@@]21C [Example 10, 6α,9α-Difluoro-17α-[(3,5-dimethylisoxazole-4-carbonyl)oxy]-11β-hydroxy-16α-methyl-3-oxo-androsta-1,4-diene-17β-carbothioic acid S-fluoromethyl ester]
EC50 (glucocorticoid receptor): 1 nM

Cc1ccoc1C(=O)OC1(C(=O)SCF)C(C)CC2C3CC(F)C4=CC(=O)C=CC4(C)C3(F)C(O)CC21C (stereo not drawn) [Example 19, 6α,9α-Difluoro-11β-hydroxy-16α-methyl-17α-[(3-methylfuran-2-carbonyl)oxy]-3-oxo-androsta-1,4-diene-17β-carbothioic acid S-fluoromethyl ester]
plasma clearance (in words) [1]: approaching hepatic blood flow
clearance (in vivo): 48 mL/min/kg
